# Reference: ChEMBL document CHEMBL1126473, “Benzolactams as non-peptide cholecystokinin receptor ligands” (Bioorg Med Chem Lett, 1993)
# Biological target: T1, Cholecystokinin receptor type A (Rattus norvegicus, UniProt P30551)
# T1 sequence (P30551 whole entry): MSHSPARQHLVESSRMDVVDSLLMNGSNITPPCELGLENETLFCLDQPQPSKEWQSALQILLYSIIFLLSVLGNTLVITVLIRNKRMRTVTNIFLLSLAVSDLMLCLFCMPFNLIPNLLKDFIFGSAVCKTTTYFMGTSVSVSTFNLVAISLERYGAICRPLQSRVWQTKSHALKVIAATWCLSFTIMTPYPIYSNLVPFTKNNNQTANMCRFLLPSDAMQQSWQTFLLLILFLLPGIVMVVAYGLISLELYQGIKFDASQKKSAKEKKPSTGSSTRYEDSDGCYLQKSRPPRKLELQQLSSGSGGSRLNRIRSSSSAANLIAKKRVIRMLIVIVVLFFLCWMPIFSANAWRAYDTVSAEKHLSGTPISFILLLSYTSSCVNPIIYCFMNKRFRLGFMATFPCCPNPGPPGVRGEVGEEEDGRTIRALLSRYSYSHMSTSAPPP
# Experiment: Ability to inhibit the binding of [125I]CCK-8 to Cholecystokinin type A receptor in rat pancreas.
row,Compound,IC50
1,CC(C)(C)OC(=O)CN1C(=O)C(NC(=O)c2ccc3ccccc3c2)CCc2ccccc21 (configuration not stated),7.5 nM
2,Cc1cccc(NC(=O)NC2CCc3ccccc3N(CC(=O)OC(C)(C)C)C2=O)c1 (configuration not stated),140 nM
3,COc1cccc(NC(=O)NC2CCc3ccccc3N(CC(=O)OC(C)(C)C)C2=O)c1 (configuration not stated),62 nM

# Other lines, results leading:
row,IC50,Compound
1,130 nM,Cc1cccc(NC(=O)NC2CCc3ccccc3N(CC(=O)N3CCCC3)C2=O)c1 (configuration not stated)
2,335 nM,COc1cccc(NC(=O)N[C@H]2CCc3ccccc3N(CC(=O)N3CCCC3)C2=O)c1
3,1000 nM,Cc1cccc(NC(=O)N[C@H]2CCc3ccccc3N(CC(=O)N3CCCC3)C2=O)c1
4,30 nM,Cc1cccc(NC(=O)N[C@@H]2CCc3ccccc3N(CC(=O)N3CCCC3)C2=O)c1
5,28 nM,COc1cccc(NC(=O)N[C@@H]2CCc3ccccc3N(CC(=O)N3CCCC3)C2=O)c1

# Biological target: not listed separately
# Experiment: Ability to inhibit the binding of [125I]CCK-8 to Cholecystokinin type B receptor in guinea pig cortex.
row,Compound,IC50
1,CCOC(=O)CN1C(=O)C(NC(=O)Nc2ccc(Cl)cc2)N=C(c2ccccc2)c2ccccc21 (configuration not stated),1 nM
2,O=C(Nc1ccc(Cl)cc1)NC1N=C(c2ccccc2)c2ccccc2N(CC(=O)N2CCCC2)C1=O (configuration not stated),0.28 nM

# Biological target: not listed separately
# Experiment: Ability to inhibit the binding of [125I]-gastrin to gastric glands in guinea pig.
row,Compound,IC50
1,CCOC(=O)CN1C(=O)C(NC(=O)Nc2ccc(Cl)cc2)N=C(c2ccccc2)c2ccccc21 (configuration not stated),3.3 nM
2,O=C(Nc1ccc(Cl)cc1)NC1N=C(c2ccccc2)c2ccccc2N(CC(=O)N2CCCC2)C1=O (configuration not stated),0.5 nM
